In patent US20230165970A1, “COMPOSITIONS AND METHODS FOR THE TREATMENT OF BACTERIAL INFECTIONS” (priority 2017, published 2023):
Converted amounts (≈) assume the structure as drawn. Read-outs that look alike come from different tables or passages of the source. *1 amine or outer side, *2 acyl side, *3 side chain or, on linkers, in order; H or OH if unused. Where a SMILES comes first, the peptide text is derived from it. Bridges are numbered along the chain shown (N, C = ends). Roman numbers before positions name the chains, in order. [ ]: non-standard residue; d: D form. The star is where a group is joined. ξ: configuration not given here. X8 = C#CCOCCOCCOCCOCCN1CCN(C2C[C@@H](C(=O)[*:1])[C@H](C(=O)[*:2])C2)CC1; X2 = O=C([C@@H](N[*:1])[C@H](O)CCC(F)(F)F)[*:2]; Propargyl(OCH2CH2)4CO = C#CCOCCOCCOCCOCCC(=O)*; Aoc(2) = CCCCCC[C@H](N)C(=O)O; hLeu = CC(C)CC[C@H](N)C(=O)O; X7 = NCCN(NC(=O)[*:2])[*:1]; Nle = CCCC[C@H](N)C(=O)O; ξF = NC(Cc1ccccc1)C(=O)O; Dab = NCC[C@H](N)C(=O)O; ξT = CC(O)C(N)C(=O)O; azaGly = NNC(=O)O

Experiments:
Ec 2469 = type: cell-based, Escherichia coli
Procedure: (§1) Briefly, stock solutions of all antibacterial agents were prepared fresh in appropriate solvents (i.e. PBS, pH 7.4, DMSO, DI, etc.). Stock concentrations for drug conjugates were made at 12.5× the highest final assay concentration. All were serially diluted 2-fold, 8 or 12 times in a 96-well PCR plate (VWR cat. no. 83007-374). Bacterial cell suspensions generated from Mueller-Hinton agar (MHA) plate cultures were prepared in 0.85% saline and adjusted to ˜0.1 OD600 nm. […] For the conjugates, 92 μL of each cell suspension in RPMI B were added in the same 96-well plate assay format. […] Compounds were tested against a 14-strain panel comprised of E. coli (Ec), A. baumannii (Ab), P. aeruginosa (Pa), and K. pneumoniae (Kp) that were obtained from ATCC (Ec 25922, Ec 2489, Ab 19606, Pa 27853, Pa PAO1, Kp 43816, Kp 10031), Centers for Disease Control and Prevention (Ec AR0349), BEI Resources (Ab AB5075), Micromyx LLC (Ab 8990, Kp 6951), and Belgian Coordinated Collections of Microorganisms (Pa LES431) or generated in-house (Ec 25922 64X-1). […] E. coli strain ATCC 25922 and P. aeruginosa strain LES431 were run in the presence and absence of 50% heat-inactivated fetal bovine serum (FBS; Sigma, cat. no. F4135-100 mL). Plates were mixed by shaking then incubated at 35° C. overnight (16-20 h).

Ec 25922 = type: cell-based, Escherichia coli
Procedure: as §1

Ec 25922 64X-1 (COL^R) = type: cell-based, Escherichia coli; details: media CA-MHB
Procedure: (§2) Briefly, stock solutions of all antibacterial agents were prepared fresh in appropriate solvents (i.e. PBS, pH 7.4, DMSO, DI, etc.). Stock concentrations for drug conjugates were made at 12.5× the highest final assay concentration. All were serially diluted 2-fold, 8 or 12 times in a 96-well PCR plate (VWR cat. no. 83007-374). Bacterial cell suspensions generated from Mueller-Hinton agar (MHA) plate cultures were prepared in 0.85% saline and adjusted to ˜0.1 OD600 nm. Next, cell suspensions were diluted 1:200 in RPMI containing 5% Luria Broth (LB) to improve bacterial growth (BD Difco, cat. no. 244620) to a concentration of ˜5×10^5 CFU (colony-forming units)/mL. Due to poor solubility in Mueller-Hinton broth media, drug conjugates were evaluated in RPMI 1640 medium (+) L-glutamine, (+) sodium bicarbonate, pH 7.4 (“RPMI B”; Gibco, cat. no. 11875-085) as has been described as a more physiologically-relevant media for susceptibility testing of antibacterial compounds (1). For the conjugates, 92 μL of each cell suspension in RPMI B were added in the same 96-well plate assay format. […] Compounds were tested against a 14-strain panel comprised of E. coli (Ec), A. baumannii (Ab), P. aeruginosa (Pa), and K. pneumoniae (Kp) that were obtained from ATCC (Ec 25922, Ec 2489, Ab 19606, Pa 27853, Pa PAO1, Kp 43816, Kp 10031), Centers for Disease Control and Prevention (Ec AR0349), BEI Resources (Ab AB5075), Micromyx LLC (Ab 8990, Kp 6951), and Belgian Coordinated Collections of Microorganisms (Pa LES431) or generated in-house (Ec 25922 64X-1). […] E. coli strain ATCC 25922 and P. aeruginosa strain LES431 were run in the presence and absence of 50% heat-inactivated fetal bovine serum (FBS; Sigma, cat. no. F4135-100 mL). Plates were mixed by shaking then incubated at 35° C. overnight (16-20 h).

Ec AR0349 (mcr-1, COL^R) = type: cell-based, Escherichia coli; details: media CA-MHB
Procedure: as §2

Ab 19606 (COLhet^R) = type: cell-based, Acinetobacter baumannii; details: media CA-MHB
Procedure: as §2

[1] = system: Ab AB58705 (COL^R) IpxD, mut. (no LPS); type: cell-based, Acinetobacter baumannii; details: media CA-MHB
Ab 8990 (COL^R) = type: cell-based, Acinetobacter baumannii; details: Ab 8990 (COL^R); media CA-MHB
Procedure: as §1

Ab AB5075 = type: cell-based, Acinetobacter baumannii
Procedure: as §1

Pa 27853 = type: cell-based, Pseudomonas aeruginosa
Procedure: as §1

Pa LES431 = type: cell-based, Pseudomonas aeruginosa
Procedure: as §1

Pa PAO1 = type: cell-based, Pseudomonas aeruginosa
Procedure: as §1

Kp 10031 = type: cell-based, Klebsiella pneumoniae
Procedure: as §1

Kp 43816 = type: cell-based, Klebsiella pneumoniae
Procedure: as §1

Kp 6951 (COL^R) = type: cell-based, Klebsiella pneumoniae; details: Kp 6951 (COL^R); media CA-MHB
Procedure: as §1

Sa RN = type: cell-based
LPS from E. coli O111:B4 = assay: LPS binding/neutralization by Limulus Amebocyte Lysate (LAL) assay; type: biochemical; details: LPS 1-10,000 ng/mL, test article 0.25-10 μM
Procedure: The LAL assay (Charles River) was used to determine the binding affinity of test articles to LPS.
(§3) For the assay, 25 μL purified LPS from E. coli O111:1B4 (Sigma) at doses ranging from 1-10,000 ng/mL were incubated with 25 μL of test article at concentrations ranging from 0.25-10 NM. After 5 min incubation at 37° C., 50 μL of LAL reagent, which reacts with lipid A portion from LPS, was added to corresponding wells. After 15 min, absorbance at 405 nm was read on EnSpire plate reader (Perkin Elmer). The % LPS neutralization is calculated relative to a PBS control (background) and LPS control at each concentration (positive control).
LPS neutralization=(1−(absorbance test article−PBS with LAL reagent)/(absorbance no test article−PBS with LAL reagent))×100
To obtain a single value of LPS neutralization for each test article, the area under the curve (AUC) for dose-response of test articles from […] for each LPS concentration was calculated using Prism 7 software. The % LPS neutralization is the sum of the AUCs for each LPS concentration determined relative to the maximal AUC achievable×100.
as §3, with “O111:B4” for “O111:1B4”, “μM.” for “NM.”

SMILES | MIC (Ec 2469) [µg/mL] | MIC (Ec 25922) [µg/mL] | MIC (Ec 25922 64X-1 (COL^R)) [µg/mL] | MIC (Ec AR0349 (mcr-1, COL^R)) [µg/mL] | MIC (Ab 19606 (COLhet^R)) [µg/mL] | MIC (Ab 8990 (COL^R)) [µg/mL] | MIC (Ab AB5075) [µg/mL] | MIC (Pa 27853) [µg/mL] | MIC (Pa LES431) [µg/mL] | MIC (Pa PAO1; PAO1) [µg/mL] | MIC (Kp 10031) [µg/mL] | MIC (Kp 43816) [µg/mL] | MIC (Kp 6951 (COL^R)) [µg/mL] | MIC (Sa RN) [µg/mL] | also measured
C#CCOCCOCCOCCOCCC(=O)N[C@@H](CCC(C)C)C(=O)N[C@@H](CCN)C(=O)N[C@H](C(=O)N(CCN)NC(=O)N[C@H]1CCNC(=O)[C@H]([C@@H](C)O)NC(=O)[C@H](CCN)NC(=O)[C@H](CCN)NC(=O)[C@H](CC(C)C)NC(=O)[C@@H](Cc2ccccc2)NC(=O)[C@H](CCN)NC1=O)[C@@H](C)O [Int-126] ({Propargyl(OCH2CH2)4CO}-[hLeu][Dab]T[X7][Dab][Dab][dF]L[Dab][Dab]T; lactam 5-C) | 0.5 (≈ 0.349 µM) | 1 (≈ 0.697 µM) | 64 (≈ 44.6 µM) | 8 (≈ 5.58 µM) | 4 (≈ 2.79 µM) | >128 | 2 (≈ 1.39 µM) | 2 (≈ 1.39 µM) | 4 (≈ 2.79 µM) | 2 (≈ 1.39 µM) | 1 (≈ 0.697 µM) | 1 (≈ 0.697 µM) | >128 | >128 | MIC [1]: 64 µg/mL (≈ 44.6 µM); % LPS neutralization (LPS from E. coli O111:B4; sum of AUCs relative to maximal AUC (Table 15)): 19.7%
C#CCOCCOCCOCCOCCC(=O)N[C@@H](CCCCCC)C(=O)N[C@@H](CCN)C(=O)N[C@H](C(=O)NNC(=O)N[C@H]1CCNC(=O)[C@H]([C@@H](C)O)NC(=O)[C@H](CCN)NC(=O)[C@H](CCN)NC(=O)[C@H](CC(C)C)NC(=O)[C@@H](Cc2ccccc2)NC(=O)[C@H](CCN)NC1=O)[C@H](O)CCC(F)(F)F [Int-119] ({Propargyl(OCH2CH2)4CO}-[Aoc(2)][Dab][X2][azaGly][Dab][Dab][dF]L[Dab][Dab]T; lactam 5-C) | 2 (≈ 1.35 µM) | 2 (≈ 1.35 µM) |  |  |  |  | 1 (≈ 0.673 µM) | 4 (≈ 2.69 µM) | 4 (≈ 2.69 µM) | 16 (≈ 10.8 µM) | 2 (≈ 1.35 µM) | 2 (≈ 1.35 µM) |  | >128 | 
C#CCOCCOCCOCCOCCN1CCN(C2C[C@@H](C(=O)N[C@@H](CCCC)C(=O)N[C@@H](CCN)C(=O)N[C@H](C(=O)NNC(=O)N[C@H]3CCNC(=O)[C@H]([C@@H](C)O)NC(=O)[C@H](CCN)NC(=O)[C@H](CCN)NC(=O)[C@H](CC(C)C)NC(=O)C(Cc4ccccc4)NC(=O)[C@H](CCN)NC3=O)[C@@H](C)O)[C@H](C(=O)N[C@@H](CCCC)C(=O)N[C@@H](CCN)C(=O)N[C@H](C(=O)NNC(=O)N[C@H]3CCNC(=O)C(C(C)O)NC(=O)[C@H](CCN)NC(=O)[C@H](CCN)NC(=O)[C@H](CC(C)C)NC(=O)[C@@H](Cc4ccccc4)NC(=O)[C@H](CCN)NC3=O)[C@@H](C)O)C2)CC1 (some centres unmarked) [Int-105] (I: [Nle][Dab]T[azaGly][Dab][Dab][dF]L[Dab][Dab][ξT] / II: [Nle][Dab]T[azaGly][Dab][Dab][ξF]L[Dab][Dab]T; lactam I:5-I:C, II:5-II:C; linker I:N-II:N via X8) |  |  | 4 (≈ 1.49 µM) | 4 (≈ 1.49 µM) | 2 (≈ 0.744 µM) | >128 |  |  |  |  |  |  | 32 (≈ 11.9 µM) |  | MIC (Ec 2469; Ec 2469, media CA-MHB): 2 µg/mL (≈ 0.744 µM); MIC (Ec 25922; Ec 25922 + FBS (50%, heat-inactivated), media CA-MHB): 0.5 µg/mL; MIC (Ec 25922; Ec 25922, media CA-MHB): 2 µg/mL (≈ 0.744 µM); MIC (Ab AB5075; Ab AB5075, media CA-MHB): 2 µg/mL (≈ 0.744 µM); MIC (Pa 27853; Pa 27853, media CA-MHB): 4 µg/mL (≈ 1.49 µM); MIC (Pa LES431; Pa LES431 + FBS (50%, heat-inactivated), media CA-MHB): 16 µg/mL; MIC (Pa LES431; Pa LES431, media CA-MHB): 2 µg/mL (≈ 0.744 µM); MIC (Pa PAO1; Pa PAO1, media CA-MHB): 4 µg/mL (≈ 1.49 µM); MIC (Kp 10031; Kp 10031, media CA-MHB): 2 µg/mL (≈ 0.744 µM); MIC (Kp 43816; Kp 43816, media CA-MHB): 2 µg/mL (≈ 0.744 µM); % LPS neutralization of TM (LPS from E. coli O111:B4; sum of AUCs relative to maximal AUC (Table 14)): 33.2%
